Test results published in patent US20260092074A1, “Annelated Pyridines as Steroidogenesis Inhibitors, Preparation Method and Use Thereof” (Guangzhou Vinnocent Pharmaceutical Limited, priority 2022, published 2026).

Key:
human CYP11B1 = biological target: T1, human CYP11B1 (Homo sapiens, UniProt P15538); assay: Inhibition of hCYP11B1 in transfected V79 cells; type: cell-based; conditions: hamster V79 cells expressing human CYP11B1; substrate 11-deoxycortisol 200 nM
T1 construct: expressed in transfected cells
T1 sequence (P15538 25-503): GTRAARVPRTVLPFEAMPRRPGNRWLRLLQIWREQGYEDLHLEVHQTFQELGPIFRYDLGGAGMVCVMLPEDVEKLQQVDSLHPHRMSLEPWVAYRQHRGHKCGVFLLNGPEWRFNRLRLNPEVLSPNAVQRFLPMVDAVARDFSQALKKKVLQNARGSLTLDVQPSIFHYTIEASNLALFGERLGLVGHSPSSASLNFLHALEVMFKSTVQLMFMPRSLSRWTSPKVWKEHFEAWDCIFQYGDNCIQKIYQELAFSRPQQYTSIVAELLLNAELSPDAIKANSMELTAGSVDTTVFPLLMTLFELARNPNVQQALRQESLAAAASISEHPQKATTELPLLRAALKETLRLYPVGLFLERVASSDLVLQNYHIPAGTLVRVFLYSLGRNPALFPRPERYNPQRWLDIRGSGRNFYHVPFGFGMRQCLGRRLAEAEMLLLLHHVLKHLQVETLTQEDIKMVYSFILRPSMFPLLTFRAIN
Method: (§1) Genes of human CYP11B1 and rat NADPH-P450 reductase were transfected into hamster V79 cells using a lentivirus vector, and stably-expressing cell lines were selected by taking advantages of the associated puromycin-resistance gene. Cultured cells were diluted and seeded in a 96-well plate with an amount of approximately 10,000 per well. After pre-incubation with suitable concentrations of the test compounds for 2 hours, 11-deoxycortisol of 200 nM was added as the substrate to initiate the catalytic reaction. After further incubation for 30 minutes, it was quenched with ethyl acetate. Subsequently, the substrate and product(s) were quantified using LC-MS/MS or HPLC at 260 nm, and the IC50 values were calculated according to inhibitory percentage.

human CYP11B2 = biological target: T2, human CYP11B2 (Homo sapiens, UniProt P19099); assay: Inhibition of hCYP11B2 in transfected V79 cells; type: cell-based; conditions: hamster V79 cells expressing human CYP11B2; substrate 11-deoxycorticosterone 200 nM
T2 construct: expressed in transfected cells
T2 sequence (P19099 25-503): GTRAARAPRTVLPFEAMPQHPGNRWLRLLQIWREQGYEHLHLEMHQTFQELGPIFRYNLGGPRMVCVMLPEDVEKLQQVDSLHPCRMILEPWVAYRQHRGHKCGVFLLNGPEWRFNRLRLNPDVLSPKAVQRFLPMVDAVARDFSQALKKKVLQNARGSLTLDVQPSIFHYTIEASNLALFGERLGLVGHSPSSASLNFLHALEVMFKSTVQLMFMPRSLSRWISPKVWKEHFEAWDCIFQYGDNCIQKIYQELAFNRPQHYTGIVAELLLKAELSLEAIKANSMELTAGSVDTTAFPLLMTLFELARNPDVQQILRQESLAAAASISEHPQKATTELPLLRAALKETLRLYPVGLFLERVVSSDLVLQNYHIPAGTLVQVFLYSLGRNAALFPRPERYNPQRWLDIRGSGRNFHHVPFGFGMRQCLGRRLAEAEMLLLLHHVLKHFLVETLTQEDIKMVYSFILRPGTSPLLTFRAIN
Method: as §1, with “CYP11B2” for “CYP11B1”, “11-deoxycorticosterone” for “11-deoxycortisol”

Row | IC50 (human CYP11B1) [nM] | IC50 (human CYP11B2) [nM] | Structure (SMILES)
1 | 606 | 40 | N#Cc1ccc(-c2cncc3c2CCN3C(=O)c2ccc(Cl)cc2)cc1 [C38, 4-(1-(4-Chlorobenzoyl)-2,3-dihydro-1H-pyrrolo[2,3-c]pyridin-4-yl)benzonitrile]
2 | 19 | 1 | COc1ccc(S(=O)(=O)N2CCSc3c(-c4ccc(F)cc4)cncc32)cc1 [S30, 8-(4-Fluorophenyl)-4-((4-methoxyphenyl)sulfonyl)-3,4-dihydro-2H-pyrido[4,3-b][1,4]thia zine]
3 | 516 | 29.5 | COc1cccc(C(=O)N2CCOc3c(-c4ccc(C#N)cc4)cncc32)c1 [O23, 4-(4-(3-Methoxybenzoyl)-3,4-dihydro-2H-pyrido[4,3-b][1,4]oxazin-8-yl)benzonitrile]
4 | 16 | 0.8 | COc1cccc(S(=O)(=O)N2CC(S(=O)(=O)N3CCSc4c(-c5ccc(C#N)cc5)cncc43)C2)c1 [S79, 4-(4-((1-((3-Methoxyphenyl)sulfonyl)azetidin-3-yl)sulfonyl)-3,4-dihydro-2H-pyrido[4,3-b][1,4]thiazin-8-yl)benzonitrile]
5 | 5 | 4 | N#Cc1ccc(-c2cncc3c2ccn3C(=O)c2ccccc2I)cc1 [E21, 4-(1-(2-iodobenzoyl)-1H-pyrrolo[2,3-c]pyridin-4-yl)benzonitrile]
6 | 52 | 1.8 | COc1cccc(CC(=O)N2CCOc3c(-c4ccc(C#N)cc4)cncc32)c1 [O41, 4-(4-(2-(3-Methoxyphenyl)acetyl)-3,4-dihydro-2H-pyrido[4,3-b][1,4]oxazin-8-yl)benzonitrile]
7 | 31.6 | 1.4 | Cc1cccc(S(=O)(=O)N2CC(C(=O)N3CCOc4c(-c5ccc(C#N)cc5)cncc43)C2)c1 [O70, 4-(4-(1-(m-Tolylsulfonyl)azetidine-3-carbonyl)-3,4-dihydro-2H-pyrido[4,3-b][1,4]oxazin-8-yl)benzonitrile]
8 | 1160 | 11 | COc1ccc(C(=O)N2CCSc3c(-c4cc5cc(C#N)ccc5o4)cncc32)cc1 [S98, 2-(4-(4-Methoxybenzoyl)-3,4-dihydro-2H-pyrido[4,3-b][1,4]thiazin-8-yl)benzofuran-5-carbonitrile]
9 | 243 | 1.9 | N#Cc1ccc(S(=O)(=O)N2CCOc3c(-c4cc5cc(C#N)ccc5o4)cncc32)cc1 [O129, 2-(4-((4-Cyanophenyl)sulfonyl)-3,4-dihydro-2H-pyrido[4,3-b][1,4]oxazin-8-yl)benzofuran-5-carbonitril]
10 | 310 | 7 | N#Cc1ccc(-c2cncc3c2CCN3C(=O)c2cccc(F)c2)cc1 [C28, 4-(1-(3-fluorobenzoyl)-2,3-dihydro-1H-pyrrolo[2,3-c]pyridin-4-yl)benzonitrile]
11 | 3060 | 127 | CCC(=O)N[C@@H]1CCCc2c(-c3ccc4c(c3)CCC(=O)N4C)cncc21 [Baxdrostat, reference compound]
12 | 292 | 7.6 | N#Cc1ccc(-c2cncc3c2CCN3C(=O)Cc2ccccc2Br)cc1 [C65, 4-(1-(2-(2-Bromophenyl)acetyl)-2,3-dihydro-1H-pyrrolo[2,3-c]pyridin-4-yl)benzonitrile]
13 | 9.5 | 4.3 | COc1cccc(S(=O)(=O)N2CCc3c(-c4ccc(C#N)cc4)cncc32)c1 [C19, 4-(1-((3-Methoxyphenyl)sulfonyl)-2,3-dihydro-1H-pyrrolo[2,3-c]pyridin-4-yl)benzonitrile]
14 | 3260 | 48.8 | O=C(C1CN(Cc2cccc(F)c2)C1)N1CCOc2c(-c3ccc4nccn4c3)cncc21 [O90, (1-(3-Fluorobenzyl)azetidin-3-yl)(8-(imidazo[1,2-a]pyridin-6-yl)-2,3-dihydro-4H-pyrido[4,3-b][1,4]oxazin-4-yl)methanone]
15 | 0.16 | 0.28 | N#Cc1ccc(-c2cncc3c2CCN3S(=O)(=O)c2ccc(C#N)cc2)cc1 [C15, 4-((4-(4-Cyanophenyl)-2,3-dihydro-1H-pyrrolo[2,3-c]pyridin-1-yl)sulfonyl)benzonitrile]
16 | 522 | 12 | N#Cc1ccc(-c2cncc3c2SCCN3C(=O)c2cccc(C(F)(F)F)c2)cc1 [S87, 4-(4-(3-(Trifluoromethyl)benzoyl)-3,4-dihydro-2H-pyrido[4,3-b][1,4]thiazin-8-yl)benzonitrile]
17 | 45 | 2.4 | N#Cc1ccc(-c2cncc3c2OCCN3S(=O)(=O)C2CN(S(=O)(=O)c3cccc(F)c3)C2)cc1 [O117, 4-(4-((1-((3-Fluorophenyl)sulfonyl)azetidin-3-yl)sulfonyl)-3,4-dihydro-2H-pyrido[4,3-b][1, 4]oxazin-8-yl)benzonitrile]
18 | 26 | 0.3 | N#Cc1ccc(-c2cncc3c2OCCN3S(=O)(=O)C2CN(Cc3ccc(F)cc3)C2)cc1 [O123, 4-(4-((1-(4-Fluorobenzyl)azetidin-3-yl)sulfonyl)-3,4-dihydro-2H-pyrido[4,3-b][1,4]oxazin-8-yl)benzonitrile]
19 | 4440 | 64 | Cc1ccccc1C(=O)N1CCSc2c(-c3ccc(C#N)cc3)cncc21 [S90, 4-(4-(2-Methylbenzoyl)-3,4-dihydro-2H-pyrido[4,3-b][1,4]thiazin-8-yl)benzonitrile]
20 | 13.4 | 0.17 | COc1ccc(S(=O)(=O)N2CCSc3c(-c4ccc(F)c(Cl)c4)cncc32)cc1 [S34, 8-(3-chloro-4-fluorophenyl)-4-((4-methoxyphenyl)sulfonyl)-3,4-dihydro-2H-pyrido[4,3-b][1,4]thiazine]
21 | 472 | 11 | N#Cc1ccc(-c2cncc3c2CCN3C(=O)c2ccc([N+](=O)[O-])cc2)cc1 [C30, 4-(1-(4-Nitrobenzoyl)-2,3-dihydro-1H-pyrrolo[2,3-c]pyridin-4-yl)benzonitrile]
22 | 52 | 0.7 | N#Cc1ccc(-c2cncc3c2OCCN3C(=O)C2CN(S(=O)(=O)c3cccc(C#N)c3)C2)cc1 [O68, 3-((3-(8-(4-Cyanophenyl)-3,4-dihydro-2H-pyrido[4,3-b][1,4]oxazine-4-carbonyl)azetidin-1-yl)sulfonyl)benzonitrile]
23 | 1970 | 10.3 | N#Cc1ccc(S(=O)(=O)N2CCSc3c(-c4ccc5c(c4)CC(=O)N5)cncc32)cc1 [S51, 4-((8-(2-Oxoindolin-5-yl)-2,3-dihydro-4H-pyrido[4,3-b][1,4]thiazin-4-yl)sulfonyl)benzonitrile]
24 | 152 | 20 | Cc1ccsc1C(=O)N1CCc2c(-c3ccc(C#N)cc3)cncc21 [C45, 4-(1-(3-Methylthiophene-2-carbonyl)-2,3-dihydro-1H-pyrrolo[2,3-c]pyridin-4-yl)benzonitrile]
25 | 2980 | 21 | N#Cc1ccc(-c2cncc3c2SCCN3C(=O)c2ccc(F)cc2)cc1 [S5, 4-(4-(4-Fluorobenzoyl)-3,4-dihydro-2H-pyrido[4,3-b][1,4]thiazin-8-yl)benzonitrile]
26 | 0.6 | 0.3 | N#Cc1ccc(-c2cncc3c2ccn3S(=O)(=O)c2cccc(C(F)(F)F)c2)cc1 [E5, 4-(1-((3-(Trifluoromethyl)phenyl)sulfonyl)-1H-pyrrolo[2,3-c]pyridin-4-yl)benzonitrile]
27 | 1.1 | 0.4 | N#Cc1ccc(-c2cncc3c2CCN3S(=O)(=O)c2ccc(Cl)nc2)cc1 [C5, 4-(1-((6-Chloropyridin-3-yl)sulfonyl)-2,3-dihydro-1H-pyrrolo[2,3-c]pyridin-4-yl)benzonitrile]
28 | 7 | 27 | N#Cc1ccc(S(=O)(=O)N2CCSc3c(-c4ccc5nc[nH]c5c4)cncc32)cc1 [S49, 4-((8-(1H-Benzo[d]imidazol-6-yl)-2,3-dihydro-4H-pyrido[4,3-b][1,4]thiazin-4-yl)sulfonyl)benzonitrile]
